One data set deals with T1, PI3K delta (Homo sapiens, UniProt O00329).
T1 construct: for the full-length p110-d subunit are generated and fused by overlapping PCR; p85(iSH2) fusion partner (see partner chain) (N); His tag (C); made in house; host or cells: baculovirus; Tn5 (Trichoplusia ni) or TiniPro insect cells
Nature of the data set: PI3K delta kinase assay (Kinase-Glo luminescence). The data set is classed as biochemical. An outline of the steps:
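Inhibition is derived from luminescent detection of unconsumed ATP. The reaction runs for one hour at ambient temperature and contains the δ isoform fusion protein, phosphatidylinositol substrate and low (1 μM) ATP. Eight compound concentrations are tested in single, and a 4-parameter logistic model is used to calculate IC50.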
On the technique in general: In Kinase-Glo more light means more ATP remaining.

The nature of the next data set: Solubility at pH 6.8. The settings on record: pH 6.8, aqueous buffer, thermodynamic from solid; read-out: solubility. The data set is classed as physicochemical. In outline:
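Following the procedure of Zhou et al. (2007), compound solubility was determined at pH 6.8.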

A further data set concerns the target T2, PI3K alpha (Homo sapiens, UniProt P42336).
T2 construct: p85(iSH2) fusion partner (see partner chain) (N); His tag (C); made in house; host or cells: baculovirus; Tn5 (Trichoplusia ni) or TiniPro insect cells
In words: PI3K alpha kinase assay (Kinase-Glo luminescence). Format: biochemical. An outline of the steps: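 Luminescent ATP-depletion assay (Kinase-Glo) with 10 nM PI3Kα and 10 μg/mL phosphatidylinositol as lipid substrate at 1 μM ATP. Incubation lasts 60 min at room temperature.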

The target of a further data set is T3, PI3K gamma (Homo sapiens, UniProt P48736).
T3 construct: His tag (C); made in house; host or cells: baculovirus (pVL1393); Tn5 or TiniPro insect cells; construct from Roger Williams lab, MRC LMB
T3 sequence (P48736 144-1102 limits assumed): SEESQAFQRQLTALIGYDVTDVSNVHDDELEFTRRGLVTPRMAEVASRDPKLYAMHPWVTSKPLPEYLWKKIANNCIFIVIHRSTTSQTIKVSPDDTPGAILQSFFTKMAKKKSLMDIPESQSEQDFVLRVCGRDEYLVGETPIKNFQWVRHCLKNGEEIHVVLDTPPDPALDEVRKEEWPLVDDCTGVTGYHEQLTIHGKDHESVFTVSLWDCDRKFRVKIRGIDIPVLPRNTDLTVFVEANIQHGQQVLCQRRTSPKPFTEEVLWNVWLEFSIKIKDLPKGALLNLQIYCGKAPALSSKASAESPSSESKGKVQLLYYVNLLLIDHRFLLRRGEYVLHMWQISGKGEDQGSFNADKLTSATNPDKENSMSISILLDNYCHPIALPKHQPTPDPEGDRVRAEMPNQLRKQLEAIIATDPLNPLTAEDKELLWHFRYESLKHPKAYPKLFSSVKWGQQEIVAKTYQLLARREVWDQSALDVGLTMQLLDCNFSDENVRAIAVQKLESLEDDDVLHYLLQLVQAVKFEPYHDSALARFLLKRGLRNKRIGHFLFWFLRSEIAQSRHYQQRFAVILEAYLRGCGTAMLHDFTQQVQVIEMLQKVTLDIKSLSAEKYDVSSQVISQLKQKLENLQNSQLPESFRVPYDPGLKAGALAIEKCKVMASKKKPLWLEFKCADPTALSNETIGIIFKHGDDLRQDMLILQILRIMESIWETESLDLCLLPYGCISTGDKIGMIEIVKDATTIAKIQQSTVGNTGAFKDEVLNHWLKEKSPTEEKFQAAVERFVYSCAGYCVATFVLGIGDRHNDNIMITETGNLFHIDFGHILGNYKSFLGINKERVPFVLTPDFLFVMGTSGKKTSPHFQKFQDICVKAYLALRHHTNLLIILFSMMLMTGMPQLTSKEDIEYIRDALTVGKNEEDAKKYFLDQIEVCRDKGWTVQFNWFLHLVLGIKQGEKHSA
In words: PI3K gamma kinase assay (Kinase-Glo luminescence). Format: biochemical. In outline: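 PI3Kγ (150 nM) reaction run 120 min at room temperature with phosphatidylinositol substrate (10 μg/mL) and ATP (1 μM) in Tris pH 7.5 buffer containing MgCl2, NaCl, CHAPS and DTT. Remaining ATP detected by Kinase-Glo luminescence; 8 concentrations per compound, IC50 from 4-parameter curve fitting.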

For a further data set, the target named is T4, PI3K beta (Homo sapiens, UniProt P42338).
T4 construct: for the full-length p110-b subunit are generated and fused by overlapping PCR; p85(iSH2) fusion partner (see partner chain) (N); His tag (C); made in house; host or cells: baculovirus; Tn5 (Trichoplusia ni) or TiniPro insect cells
T4 sequence (P42338 with tags, fused parts or gaps limits assumed): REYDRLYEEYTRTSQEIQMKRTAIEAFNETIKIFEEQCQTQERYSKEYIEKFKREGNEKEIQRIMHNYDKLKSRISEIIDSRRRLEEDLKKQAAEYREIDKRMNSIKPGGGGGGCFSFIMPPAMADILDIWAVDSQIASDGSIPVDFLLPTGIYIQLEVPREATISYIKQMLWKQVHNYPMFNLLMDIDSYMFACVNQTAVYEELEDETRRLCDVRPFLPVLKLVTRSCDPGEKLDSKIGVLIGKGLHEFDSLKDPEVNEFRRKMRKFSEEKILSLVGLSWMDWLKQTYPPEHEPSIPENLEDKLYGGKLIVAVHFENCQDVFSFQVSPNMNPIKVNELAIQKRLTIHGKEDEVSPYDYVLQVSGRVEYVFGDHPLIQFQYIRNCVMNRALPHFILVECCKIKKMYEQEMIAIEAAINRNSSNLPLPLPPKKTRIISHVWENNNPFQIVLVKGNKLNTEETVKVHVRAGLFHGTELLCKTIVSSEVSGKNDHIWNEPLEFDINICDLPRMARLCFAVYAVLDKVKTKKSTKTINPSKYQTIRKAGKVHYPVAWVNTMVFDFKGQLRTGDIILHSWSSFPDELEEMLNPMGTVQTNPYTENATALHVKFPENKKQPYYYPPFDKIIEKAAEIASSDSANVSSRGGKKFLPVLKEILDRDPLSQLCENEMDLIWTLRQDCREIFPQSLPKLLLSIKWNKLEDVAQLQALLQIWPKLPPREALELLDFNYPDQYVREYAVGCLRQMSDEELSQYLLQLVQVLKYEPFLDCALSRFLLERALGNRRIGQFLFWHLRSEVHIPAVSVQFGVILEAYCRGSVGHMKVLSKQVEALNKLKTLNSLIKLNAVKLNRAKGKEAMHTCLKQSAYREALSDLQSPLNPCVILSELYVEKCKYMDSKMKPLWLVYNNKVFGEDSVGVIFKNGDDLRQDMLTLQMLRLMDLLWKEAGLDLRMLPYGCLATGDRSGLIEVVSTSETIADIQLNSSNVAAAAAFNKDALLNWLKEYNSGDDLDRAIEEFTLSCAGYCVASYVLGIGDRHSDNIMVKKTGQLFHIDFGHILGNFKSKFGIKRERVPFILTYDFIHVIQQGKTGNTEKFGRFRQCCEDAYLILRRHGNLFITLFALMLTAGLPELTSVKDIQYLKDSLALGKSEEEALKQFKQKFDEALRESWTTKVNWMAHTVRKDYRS
In words: PI3K beta kinase assay (Kinase-Glo luminescence). The data set is classed as biochemical. An outline of the steps: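 Kinase-Glo luminescence after a 60 min room-temperature reaction gives remaining ATP. The reaction holds 25 nM p85(iSH2)-p110β full-length His-tagged construct, 1 μM ATP, 10 μg/mL PI, and eight compound concentrations at 0.45% DMSO final. IC50 values come from a four-parameter logistic fit.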

A short description of data set [1]: Cellular CaCo2 permeability assay from apical to basal (A-B). The data set is classed as in vitro ADME. To be noted: human, Caco-2, read-out: Pe A-B (permeability). The text has this: The permeability in 10^−6 cm/s of compounds of formula (I) have been confirmed for selected example using a cellular CaCo2 permeability assay from apical to basal (A-B): […]

Converted amounts (≈) assume the structure as drawn.

The IC50 is the concentration needed to halve the response being measured. The term solubility denotes the concentration that dissolves in the medium under given conditions.

T1 sequence (O00329 with tags, fused parts or gaps limits assumed): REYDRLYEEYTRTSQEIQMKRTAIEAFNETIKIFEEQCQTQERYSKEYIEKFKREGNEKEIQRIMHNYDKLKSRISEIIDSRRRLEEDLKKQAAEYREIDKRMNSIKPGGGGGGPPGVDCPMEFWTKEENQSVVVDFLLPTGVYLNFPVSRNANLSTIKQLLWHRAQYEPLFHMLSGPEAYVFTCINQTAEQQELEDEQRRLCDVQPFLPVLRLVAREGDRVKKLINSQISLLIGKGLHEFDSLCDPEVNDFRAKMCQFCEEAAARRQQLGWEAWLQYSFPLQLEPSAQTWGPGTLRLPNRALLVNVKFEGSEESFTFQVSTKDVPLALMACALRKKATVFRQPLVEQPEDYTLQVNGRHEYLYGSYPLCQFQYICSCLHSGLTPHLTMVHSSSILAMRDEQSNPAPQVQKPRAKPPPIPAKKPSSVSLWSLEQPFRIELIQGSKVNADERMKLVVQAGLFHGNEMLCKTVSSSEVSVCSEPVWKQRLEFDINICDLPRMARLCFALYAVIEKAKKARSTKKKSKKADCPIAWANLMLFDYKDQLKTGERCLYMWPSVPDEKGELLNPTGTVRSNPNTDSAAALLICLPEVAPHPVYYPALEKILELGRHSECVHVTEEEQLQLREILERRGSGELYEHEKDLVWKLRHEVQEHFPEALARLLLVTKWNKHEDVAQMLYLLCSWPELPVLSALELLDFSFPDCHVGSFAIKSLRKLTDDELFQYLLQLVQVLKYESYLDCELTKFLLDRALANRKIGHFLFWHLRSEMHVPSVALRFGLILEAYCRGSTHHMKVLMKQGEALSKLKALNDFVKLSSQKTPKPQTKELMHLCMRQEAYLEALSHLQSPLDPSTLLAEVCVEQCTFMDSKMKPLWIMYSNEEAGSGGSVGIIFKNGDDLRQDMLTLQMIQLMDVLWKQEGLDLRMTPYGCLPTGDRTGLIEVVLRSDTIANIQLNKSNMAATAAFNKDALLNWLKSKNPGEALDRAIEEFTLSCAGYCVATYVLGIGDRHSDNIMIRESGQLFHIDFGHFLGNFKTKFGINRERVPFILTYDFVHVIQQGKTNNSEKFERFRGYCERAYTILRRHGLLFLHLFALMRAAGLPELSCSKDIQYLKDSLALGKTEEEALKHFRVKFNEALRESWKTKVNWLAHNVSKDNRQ
T2 sequence (P42336 with tags, fused parts or gaps limits assumed): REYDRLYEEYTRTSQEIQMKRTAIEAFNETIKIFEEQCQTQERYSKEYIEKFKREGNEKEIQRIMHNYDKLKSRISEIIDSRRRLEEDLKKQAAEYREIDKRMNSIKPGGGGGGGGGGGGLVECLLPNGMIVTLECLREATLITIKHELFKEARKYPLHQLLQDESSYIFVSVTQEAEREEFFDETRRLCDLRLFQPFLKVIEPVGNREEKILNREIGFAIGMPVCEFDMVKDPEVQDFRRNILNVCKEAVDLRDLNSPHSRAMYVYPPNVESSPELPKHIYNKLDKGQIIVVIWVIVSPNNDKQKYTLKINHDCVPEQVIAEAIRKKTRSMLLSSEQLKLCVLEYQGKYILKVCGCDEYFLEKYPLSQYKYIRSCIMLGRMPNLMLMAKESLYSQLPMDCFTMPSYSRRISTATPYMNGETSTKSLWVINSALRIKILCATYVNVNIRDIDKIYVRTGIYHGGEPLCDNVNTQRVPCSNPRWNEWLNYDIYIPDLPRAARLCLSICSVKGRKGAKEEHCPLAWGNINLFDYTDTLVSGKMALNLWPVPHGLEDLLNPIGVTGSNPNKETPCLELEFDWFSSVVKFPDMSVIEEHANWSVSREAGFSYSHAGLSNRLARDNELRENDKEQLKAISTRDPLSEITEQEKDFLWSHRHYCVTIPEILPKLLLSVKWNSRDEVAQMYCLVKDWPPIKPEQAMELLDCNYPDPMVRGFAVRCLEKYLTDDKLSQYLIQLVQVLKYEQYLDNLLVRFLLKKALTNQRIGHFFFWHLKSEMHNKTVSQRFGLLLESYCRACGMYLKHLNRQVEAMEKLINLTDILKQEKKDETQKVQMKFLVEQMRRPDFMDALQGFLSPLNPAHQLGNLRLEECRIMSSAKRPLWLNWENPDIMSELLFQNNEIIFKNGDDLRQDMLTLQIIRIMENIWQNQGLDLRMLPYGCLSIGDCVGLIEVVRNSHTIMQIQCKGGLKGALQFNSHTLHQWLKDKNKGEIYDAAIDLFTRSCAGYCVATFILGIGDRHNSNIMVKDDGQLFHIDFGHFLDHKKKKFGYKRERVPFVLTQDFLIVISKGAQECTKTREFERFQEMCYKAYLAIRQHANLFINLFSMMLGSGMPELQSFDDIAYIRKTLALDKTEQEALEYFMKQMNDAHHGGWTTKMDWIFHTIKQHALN

On to `CNc1ccc(-c2ccc3ncc4c(c3c2)n(-c2cn(C(C)C)nc2C)c(=O)n4C)cn1` [Example 118.1, 1-(1-isopropyl-3-methyl-1H-pyrazol-4-yl)-3-methyl-8-(6-methylamino-pyridin-3-yl)-1,3-dihydro-imidazo[4,5-c]quinolin-2-one], for which the IC50 on PI3K delta came to 0.018 µM; on PI3K alpha it was 0.026 µM; at PI3K gamma, 0.164 µM; at PI3K beta, 0.302 µM. The solubility in “Solubility at pH 6.8” came to 0.003 mg/mL (≈ 7.02 µM).

Turning to `COc1ccc(-c2ccc3ncc4c(c3c2)n(-c2c(C)nn(C)c2C)c(=O)n4C)cc1OC` [Example 1.9, 8-(3,4-Dimethoxy-phenyl)-3-methyl-1-(1,3,5-trimethyl-1H-pyrazol-4-yl)-1,3-dihydro-imidazo[4,5-c]quinolin-2-one], the IC50 is 0.018 µM on PI3K delta, 0.028 µM at PI3K alpha, 0.1 µM at PI3K gamma and 0.039 µM at PI3K beta. Also, in “Solubility at pH 6.8”, the solubility came to 0.315 mg/mL (≈ 710 µM).

For the compound `COc1ccc(-c2ccc3ncc4c(c3c2)n(-c2cn(CC(=O)N(C)C)nc2C)c(=O)n4C)cn1` [Example 102, 2-{4-[8-(6-Methoxy-pyridin-3-yl)-3-methyl-2-oxo-2,3-dihydro-imidazo[4,5-c]quinolin-1-yl]-3-methyl-pyrazol-1-yl}-N,N-dimethyl-acetamide], the IC50 on PI3K delta amounted to 0.026 µM; on PI3K alpha, 0.013 µM; on PI3K gamma, 0.246 µM; on PI3K beta it was 0.291 µM. The solubility in “Solubility at pH 6.8” is 0.007 mg/mL (≈ 14.8 µM). The Papp A→B in data set [1] came out at 77 nm/s.

With `Cc1nn(C)cc1-n1c(=O)n(C)c2cnc3ccc(-c4cccnc4)cc3c21` [Example 10.2, 1-(1,3-Dimethyl-1H-pyrazol-4-yl)-3-methyl-8-pyridin-3-yl-1,3-dihydro-imidazo[4,5-c]quinolin-2-one], the IC50 at PI3K delta was 0.112 µM; at PI3K alpha, 0.016 µM; at PI3K gamma it was 0.129 µM; at PI3K beta, 0.086 µM. Further, the solubility in the data set “Solubility at pH 6.8” is 0.042 mg/mL (≈ 113 µM).

In the case of `CCn1cc(-n2c(=O)n(C)c3cnc4ccc(-c5ccc(COC)nc5)cc4c32)c(C)n1` [Example 104, 1-(1-Ethyl-3-methyl-1H-pyrazol-4-yl)-8-(6-methoxymethyl-pyridin-3-yl)-3-methyl-1,3-dihydro-imidazo[4,5-c]quinolin-2-one], the figures for the IC50 on PI3K delta, at PI3K alpha and on PI3K gamma were 0.141 µM, 0.079 µM and 0.582 µM, respectively. Moreover, in the data set “Solubility at pH 6.8”, the solubility came out at 0.004 mg/mL (≈ 9.33 µM). Further, in data set [1], the Papp A→B was 205 nm/s.

On to `Cc1nn(C)cc1-n1c(=O)n(C)c2cnc3ccc(-c4cccc(N(C)S(C)(=O)=O)c4)cc3c21` [Example 117, N-{3-[1-(1,3-Dimethyl-1H-pyrazol-4-yl)-3-methyl-2-oxo-2,3-dihydro-1H-imidazo[4,5-c]quinolin-8-yl]-phenyl}-N-methyl-methanesulfonamide], for which the half-inhibitory concentration (IC50) on PI3K delta was 0.147 µM; at PI3K alpha, 0.058 µM; on PI3K gamma, 0.225 µM; at PI3K beta, 0.907 µM. Moreover, in the data set “Solubility at pH 6.8”, the solubility is 0.003 mg/mL (≈ 6.3 µM).

Turning to `Cc1nn(C)cc1-n1c(=O)n(C)c2cnc3ccc(-c4ccc(N5CCN(C)CC5)nc4)cc3c21` [Example 96, 1-(1,3-Dimethyl-1H-pyrazol-4-yl)-3-methyl-8-[6-(4-methyl-piperazin-1-yl)-pyridin-3-yl]-1,3-dihydro-imidazo[4,5-c]quinolin-2-one], the IC50 at PI3K delta amounted to 0.199 µM; at PI3K alpha, 0.047 µM; at PI3K beta, 0.544 µM. In “Solubility at pH 6.8”, the solubility was > 0.469 mg/mL. Further, the Papp A→B in data set [1] stood at 60 nm/s.

Take `CCNc1cc(-c2ccc3ncc4c(c3c2)n(-c2cn(C)nc2C)c(=O)n4C)cnc1C` [Example 87.1, 1-(1,3-Dimethyl-1H-pyrazol-4-yl)-8-(5-ethylamino-6-methyl-pyridin-3-yl)-3-methyl-1,3-dihydro-imidazo[4,5-c]quinolin-2-one]: the IC50 on PI3K delta stood at 0.01 µM; on PI3K alpha, 0.014 µM; on PI3K beta it was 0.021 µM. The solubility in “Solubility at pH 6.8” came to 0.41 mg/mL (≈ 959 µM). In addition, the Papp A→B in data set [1] worked out at 170 nm/s.

Consider `CCCOc1ccc(-c2ccc3ncc4c(c3c2)n(-c2cn(C)nc2C)c(=O)n4C)cn1` [Example 55, 1-(1,3-Dimethyl-1H-pyrazol-4-yl)-3-methyl-8-(6-propoxy-pyridin-3-yl)-1,3-dihydro-imidazo[4,5-c]quinolin-2-one], for which the IC50 at PI3K delta is 0.132 µM; on PI3K alpha, 0.056 µM; at PI3K gamma, 0.343 µM; on PI3K beta, 0.951 µM. The solubility in “Solubility at pH 6.8” came to 0.003 mg/mL (≈ 7 µM).

As for `CNc1ccc(-c2ccc3ncc4c(c3c2)n(-c2cn(CC(=O)N(C)C)nc2C)c(=O)n4C)cn1` [Example 118.3, N,N-Dimethyl-2-{3-methyl-4-[3-methyl-8-(6-methylamino-pyridin-3-yl)-2-oxo-2,3-dihydro-imidazo[4,5-c]quinolin-1-yl]-pyrazol-1-yl}-acetamide], the IC50 on PI3K delta turned out to be 0.084 µM; at PI3K alpha it was 0.016 µM; on PI3K gamma, 0.138 µM; on PI3K beta it was 0.695 µM. Moreover, the solubility in “Solubility at pH 6.8” was 0.021 mg/mL (≈ 44.6 µM).

As for `CCn1cc(-n2c(=O)n(C)c3cnc4ccc(-c5ccc(CO)nc5)cc4c32)c(C)n1` [Example 16.1, 1-(1-ethyl-3-methyl-1H-pyrazol-4-yl)-8-(6-hydroxymethyl-pyridin-3-yl)-3-methyl-1,3-dihydro-imidazo[4,5-c]quinolin-2-one], the IC50 at PI3K delta is 0.025 µM; on PI3K alpha, 0.033 µM; at PI3K gamma it was 0.415 µM; on PI3K beta, 0.228 µM. The solubility in the data set “Solubility at pH 6.8” was found to be 0.075 mg/mL (≈ 181 µM).

With `Cc1nn(C)cc1-n1c(=O)n(C)c2cnc3ccc(-c4cncnc4)cc3c21` [Example 26, 1-(1,3-Dimethyl-1H-pyrazol-4-yl)-3-methyl-8-pyrimidin-5-yl-1,3-dihydro-imidazo[4,5-c]quinolin-2-one], the IC50 on PI3K delta amounted to 0.336 µM; on PI3K alpha, 0.103 µM; on PI3K gamma, 0.777 µM; on PI3K beta it was 0.517 µM. Also, in “Solubility at pH 6.8”, the solubility was 0.242 mg/mL (≈ 652 µM).
